# From ChEMBL document CHEMBL4483862, “Open-source discovery of chemical leads for next-generation chemoprotective antimalarials” (2018)
# pIC50: −log10 of the molar value.
# Test system: Plasmodium berghei
# Experiment: Luciferase/luciferin-expressing antifolate-resistant parasites were used to infect a culture of HepG2 cells that were pre-incubated with compounds. Infected hepatocytes emit light due to the luciferase reaction. Assay results are presented as the percent inhibition of light emission compared to control. […]
# Format: functional
# Settings: sporozoite; for IC90: read-out: LUCIFERASE INFECTION ASSAY - IC90
Compound,IC90,other results
CC1(C)C=Cc2cc(/C(N)=N/OC(=O)c3ccccc3)ccc2O1,0.211 µM,"pIC50 (FFLUC_HILL_SLOPE 1.86, FFLUC_R_SQUARED 0.604, PBLUC_HILL_SLOPE 0.872, PBLUC_R_SQUARED 0.782, read-out: LUCIFERASE INFECTION ASSAY - IC50): 7.77"
Cc1ccc(-n2c(SCCCC(=O)c3cccs3)nnc2-c2ccccc2)cc1C,> 10 µM,"pIC50 (FFLUC_HILL_SLOPE 1.75, FFLUC_R_SQUARED 0.116, read-out: LUCIFERASE INFECTION ASSAY - IC50): < 5.00"
Nc1c(C(=O)Nc2cc(Cl)cc(Cl)c2)sc(Nc2ccccc2)c1C(=O)Nc1ccc(Cl)cc1,> 10 µM,"pIC50 (FFLUC_HILL_SLOPE 1.81, FFLUC_R_SQUARED 0.586, read-out: LUCIFERASE INFECTION ASSAY - IC50): < 5.00"
Cc1csc(-n2c(C)cc(C(=O)CSc3nc(N)cc(N)n3)c2C)n1,> 10 µM,"pIC50 (FFLUC_HILL_SLOPE 1.79, FFLUC_R_SQUARED 0.665, read-out: LUCIFERASE INFECTION ASSAY - IC50): < 5.00"
N#Cc1cc(Cl)ccc1N1C(=O)C=CC1=O,> 14.2 µM,"pIC50 (FFLUC_HILL_SLOPE 1.82, FFLUC_R_SQUARED 0.838, PBLUC_HILL_SLOPE 13, PBLUC_R_SQUARED 0.372, read-out: LUCIFERASE INFECTION ASSAY - IC50): 4.87"
Cc1ccc(Cl)cc1N1C(=O)C=CC1=O,> 14.9 µM,"pIC50 (FFLUC_HILL_SLOPE 1.79, FFLUC_R_SQUARED 0.452, HEPG2TOX_HILL_SLOPE 16.8, HEPG2TOX_R_SQUARED 0.904, PBLUC_HILL_SLOPE 2.51, PBLUC_R_SQUARED 0.543, read-out: LUCIFERASE INFECTION ASSAY - IC50): 5.17"
Cc1ccc(-n2c(SC(C)C(=O)NCCc3cccs3)nnc2-c2ccccc2F)cc1 (configuration not stated),> 10 µM,"pIC50 (FFLUC_HILL_SLOPE 1.87, FFLUC_R_SQUARED 0.282, HEPG2TOX_HILL_SLOPE 0.0378, HEPG2TOX_R_SQUARED 0.0131, PBLUC_HILL_SLOPE 12.6, PBLUC_R_SQUARED 0.129, read-out: LUCIFERASE INFECTION ASSAY - IC50): < 5.00"
Oc1c(C(c2ccc(Br)cc2)N2CCCC2)cc(Cl)c2cccnc12 (configuration not stated),4.01 µM,"pIC50 (FFLUC_HILL_SLOPE 1.86, FFLUC_R_SQUARED 0.64, HEPG2TOX_HILL_SLOPE 1.66, HEPG2TOX_R_SQUARED 0.745, PBLUC_HILL_SLOPE 3.81, PBLUC_R_SQUARED 0.789, read-out: LUCIFERASE INFECTION ASSAY - IC50): 5.65"
Cc1cc(C)c(-c2csc(NC(=O)c3ccccc3SCC(=O)NCC3CCCCC3)n2)cc1C,4.99 µM,"pIC50 (FFLUC_HILL_SLOPE 1.8, FFLUC_R_SQUARED 0.211, HEPG2TOX_HILL_SLOPE 0.456, HEPG2TOX_R_SQUARED 0.807, PBLUC_HILL_SLOPE 10.4, PBLUC_R_SQUARED 0.477, read-out: LUCIFERASE INFECTION ASSAY - IC50): 5.39"
O=C(Nc1ccccc1N1CCOCC1)c1ccc2noc(-c3ccccc3)c2c1,> 10 µM,"pIC50 (FFLUC_HILL_SLOPE 1.87, FFLUC_R_SQUARED 0.584, PBLUC_HILL_SLOPE 3.85, PBLUC_R_SQUARED 0.483, read-out: LUCIFERASE INFECTION ASSAY - IC50): 5.10"
CC1C/C(=C/c2ccc(Cl)cc2)C2=NN(C(=O)c3ccc4ncccc4c3)C(c3ccc(Cl)cc3)C2C1 (configuration not stated),6.04 µM,"pIC50 (FFLUC_HILL_SLOPE 1.77, FFLUC_R_SQUARED 0.609, HEPG2TOX_HILL_SLOPE 4.89, HEPG2TOX_R_SQUARED 0.557, PBLUC_HILL_SLOPE 71.4, PBLUC_R_SQUARED 0.509, read-out: LUCIFERASE INFECTION ASSAY - IC50): 5.23"
O=c1c2ccsc2ncn1CCS(=O)(=O)N1CCN(C(c2ccc(F)cc2)c2ccc(F)cc2)CC1,> 10 µM,"pIC50 (FFLUC_HILL_SLOPE 1.84, FFLUC_R_SQUARED 0.406, PBLUC_HILL_SLOPE 0.263, PBLUC_R_SQUARED 0.514, read-out: LUCIFERASE INFECTION ASSAY - IC50): 5.83"
c1coc(-c2c3c(nc4c2oc2ccccc24)CCCCCCCCCC3)c1,> 10 µM,"pIC50 (FFLUC_HILL_SLOPE 1.77, FFLUC_R_SQUARED 0.636, read-out: LUCIFERASE INFECTION ASSAY - IC50): < 5.00"
CSc1sc(-c2nc(C)cs2)c(C)c1-c1ccnc(SCc2c(Cl)cccc2Cl)n1,> 6.46 µM,"pIC50 (FFLUC_HILL_SLOPE 1.79, FFLUC_R_SQUARED 0.514, read-out: LUCIFERASE INFECTION ASSAY - IC50): < 5.19"
O=[N+]([O-])c1ccc(N/N=C2\CCSc3ccc(Cl)cc32)cc1,9.78 µM,"pIC50 (FFLUC_HILL_SLOPE 1.76, FFLUC_R_SQUARED 0.654, HEPG2TOX_HILL_SLOPE 8.57, HEPG2TOX_R_SQUARED 0.177, PBLUC_HILL_SLOPE 41.5, PBLUC_R_SQUARED 0.423, read-out: LUCIFERASE INFECTION ASSAY - IC50): 5.03"
O=C(Nc1ccc(N2CCCC2)cn1)c1cccc(Cl)c1,0.145 µM,"pIC50 (FFLUC_HILL_SLOPE 1.87, FFLUC_R_SQUARED 0.554, HEPG2TOX_HILL_SLOPE 1.22, HEPG2TOX_R_SQUARED 0.956, PBLUC_HILL_SLOPE 1.63, PBLUC_R_SQUARED 0.915, read-out: LUCIFERASE INFECTION ASSAY - IC50): 7.42"

Compound,IC90,other results
O=C(NC(c1ccccc1)C1CC1)c1cccc(S(=O)(=O)N2CCN(c3ccc(F)cc3)CC2)c1 (configuration not stated),> 10 µM,"pIC50 (FFLUC_HILL_SLOPE 1.82, FFLUC_R_SQUARED 0.654, PBLUC_HILL_SLOPE 3.16, PBLUC_R_SQUARED 0.76, read-out: LUCIFERASE INFECTION ASSAY - IC50): 5.13"
CC(C)NS(=O)(=O)c1ccc(NC(=S)NC(=O)C(c2ccccc2)c2ccccc2)cc1,> 10 µM,"pIC50 (FFLUC_HILL_SLOPE 1.86, FFLUC_R_SQUARED 0.596, HEPG2TOX_HILL_SLOPE 15.1, HEPG2TOX_R_SQUARED 0.768, PBLUC_HILL_SLOPE 9.02, PBLUC_R_SQUARED 0.275, read-out: LUCIFERASE INFECTION ASSAY - IC50): 5.08"
CCOc1ccc(-c2n[nH]c(C)c2Oc2ccccc2Br)c(O)c1,> 8.48 µM,"pIC50 (FFLUC_HILL_SLOPE 1.83, FFLUC_R_SQUARED 0.626, read-out: LUCIFERASE INFECTION ASSAY - IC50): < 5.07"
CCN(CC)Cc1ccc(OCC(=O)Nc2ccc(Cl)cc2)c2ncccc12,> 10 µM,"pIC50 (FFLUC_HILL_SLOPE 1.82, FFLUC_R_SQUARED 0.795, HEPG2TOX_HILL_SLOPE 1.24, HEPG2TOX_R_SQUARED 0.929, read-out: LUCIFERASE INFECTION ASSAY - IC50): < 5.00"
Cc1cc(O)c(C(C)C)cc1NC1=NC(=O)S/C1=C\c1ccccc1OCC(=O)Nc1ccc(Cl)cc1,9.08 µM,"pIC50 (FFLUC_HILL_SLOPE 1.8, FFLUC_R_SQUARED 0.548, PBLUC_HILL_SLOPE 29.3, PBLUC_R_SQUARED 0.485, read-out: LUCIFERASE INFECTION ASSAY - IC50): 5.07"
O=C1C=C(Nc2ccccc2)/C(=N\c2ccccc2)c2c1oc1ccc(Nc3ccccc3)cc21,> 10 µM,"pIC50 (FFLUC_HILL_SLOPE 1.75, FFLUC_R_SQUARED 0.754, HEPG2TOX_HILL_SLOPE 1.61, HEPG2TOX_R_SQUARED 0.885, read-out: LUCIFERASE INFECTION ASSAY - IC50): < 5.00"
CCOc1ccc(C(C)=O)cc1COC(=O)c1cc(-c2cccc3ccccc23)nc2ccccc12,> 10 µM,"pIC50 (FFLUC_HILL_SLOPE 1.76, FFLUC_R_SQUARED 0.222, read-out: LUCIFERASE INFECTION ASSAY - IC50): < 5.00"
Cc1[nH]c2ccccc2c1C(=O)C(C)OC(=O)c1c2c(nc3ccccc13)/C(=C/c1cccc([N+](=O)[O-])c1)CCC2 (configuration not stated),> 10 µM,"pIC50 (FFLUC_HILL_SLOPE 1.81, FFLUC_R_SQUARED 0.362, PBLUC_HILL_SLOPE 3.43, PBLUC_R_SQUARED 0.216, read-out: LUCIFERASE INFECTION ASSAY - IC50): 5.21"
COc1c(Cl)cc([N+](=O)[O-])c(OC)c1C(=O)NC(=O)Nc1cc(Cl)cc(Cl)c1,> 7.36 µM,"pIC50 (FFLUC_HILL_SLOPE 1.87, FFLUC_R_SQUARED 0.625, PBLUC_HILL_SLOPE 21.1, PBLUC_R_SQUARED 0.112, read-out: LUCIFERASE INFECTION ASSAY - IC50): 5.16"
CCOC(=O)c1ccc(Oc2c[nH]nc2-c2ccc(OC)cc2O)cc1,> 9.31 µM,"pIC50 (FFLUC_HILL_SLOPE 1.78, FFLUC_R_SQUARED 0.28, read-out: LUCIFERASE INFECTION ASSAY - IC50): < 5.03"
Fc1ccc2c(c1)C(Nc1nc(-c3cccnc3)nc3ccccc13)CCS2 (configuration not stated),4.27 µM,"pIC50 (FFLUC_HILL_SLOPE 1.8, FFLUC_R_SQUARED 0.403, PBLUC_HILL_SLOPE 13.2, PBLUC_R_SQUARED 0.43, read-out: LUCIFERASE INFECTION ASSAY - IC50): 5.44"
Cc1ccc(S(=O)(=O)c2nc(/C=C3\N(C)c4ccccc4C3(C)C)sc2Cl)cc1,> 10 µM,"pIC50 (FFLUC_HILL_SLOPE 1.82, FFLUC_R_SQUARED 0.745, read-out: LUCIFERASE INFECTION ASSAY - IC50): < 5.00"
Cc1ccc(COC(=O)c2c(Cl)nc3sccn23)cc1,0.397 µM,"pIC50 (FFLUC_HILL_SLOPE 1.77, FFLUC_R_SQUARED 0.868, HEPG2TOX_HILL_SLOPE 1.9, HEPG2TOX_R_SQUARED 0.904, PBLUC_HILL_SLOPE 1.95, PBLUC_R_SQUARED 0.73, read-out: LUCIFERASE INFECTION ASSAY - IC50): 6.89"
Cc1cc(C(=O)CSc2nc3ccccc3c(=O)n2-c2ccc(OC(F)F)cc2)c(C)n1-c1ccc(F)c(Cl)c1,> 10 µM,"pIC50 (FFLUC_HILL_SLOPE 1.77, FFLUC_R_SQUARED 0.792, PBLUC_HILL_SLOPE 12.5, PBLUC_R_SQUARED 0.0853, read-out: LUCIFERASE INFECTION ASSAY - IC50): 5.02"
COc1ccc(-c2cnc(N)c(-c3ccc(O)c(OC)c3)c2)cn1,3.7 µM,"pIC50 (FFLUC_HILL_SLOPE 1.75, FFLUC_R_SQUARED 0.121, PBLUC_HILL_SLOPE 11, PBLUC_R_SQUARED 0.572, read-out: LUCIFERASE INFECTION ASSAY - IC50): 5.52"
